Measured values published in patent publication US20250213560A1, “NITROGEN-CONTAINING HETEROCYCLIC COMPOUNDS HAVING PHENYL GROUP AND USES THEREOF” (BNH RESEARCH CO., LTD., priority 2022, published 2025).

Columns and labels:
[1] = tested on: 293T cells; assay: Cytotoxicity test (CCK-8 cell viability) in 293T cells; type: cell-based, human; conditions: 293T cell line
Experimental: Human undifferentiated neuroblastoma cell line SH-SY5Y and human embryonic kidney cell line (HEK)-293T were purchased from Korean Cell Line Bank (Korea) and Takara (Japan), respectively. Cells were grown in HyClone Minimal Essential Medium (MEM) and Dulbecco's Modified Eagle Medium (DMEM), respectively, supplemented with 10% (v/v) fetal bovine serum (FBS), penicillin (100 U/mL), and streptomycin ([…]). Cells were maintained in a humidified atmosphere of 95% air and 5% CO2 at 37° C. Cells were passaged 10 times at maximum. Cells were dissociated using 0.05% trypsin-EDTA solution and the cells were seeded in new culture dishes for maintenance.
To examine the cytotoxicity of compounds described herein in human cell lines, SH-SY5Y and 293T cells were used. Approximately 8,000 cells (for 293T) and 15,000 cells (for SH-SY5Y) were plated per well of a 96-well plate (SPL Life Sciences Co., Ltd., Pocheon, Korea). After incubating at 37° C. for 24 hours in a humidified atmosphere containing 5% CO2, the culture medium was replaced by a series of concentrations of test compounds diluted in the corresponding culture medium.
The time of co-incubation was 24 hours and six replicates were made for each measurement. Finally, 10 μL of CCK-8 reagent (Dojindo Laboratories, Rockville, MD) was added to each well, and after incubation at 37° C. for 3 minutes, the OD at 450 nm was measured using a multifunction microplate reader (Tecan Infinite M200 Pro). These measurements were compared to that of a control and expressed as a percentage of the control to calculate cell viability. The IC50 value was calculated using SPSS software. To do this, the absorbance of the blank wells with only growth medium is subtracted from the values or the wells with cells. The readout value of background (vehicle) was set as a 100% viability, and then the percent viability for each test solution was calculated.
The data was presented as the mean value and standard error of the mean (S.E.M.). Statistical analysis was performed with the one-way ANOVA with Tukey's post hoc test (GraphPad Prism 5 software package, version 5.02, GraphPad Software Inc. USA). Significance was accepted at p<0.05.
The cytotoxicity of the compound was evaluated by treating cells with BnH12003 and measuring cell viability.
By treating cells with various BnH12 series compounds and measuring cell viability using the experimental procedure described in Example 2, the cytotoxicity of the compounds was evaluated.

[2] = tested on: GluN2B; assay: GluN2B protein expression by Western blot in primary cortical neuron cells; type: cell-based, mouse; conditions: for Western blot results Mean (GluN2B expression): relative value, vehicle set to 1, primary cortical neurons treated for 24 hours
Experimental: Meanwhile, primary cortical neuron cells were isolated from cerebral cortices of 18-day-old mouse fetuses, incubated in prep media (composition (mM): NaCl 107.5, NaH2PO4 1, NaHCO333.5, glucose 11, HEPS 1%, penicillin-streptomycin 1%) containing 0.25% trypsin and DNasel for 30 minutes, dissociated into single cells, and seeded. Primary cortical neuron cells were grown in Neurobasal medium supplemented with 1% (v/v) B27, 1% penicillin (100 U/mL), streptomycin ([…]), and 1% Glutamax. Cells were maintained in a humidified atmosphere of 95% air and 5% CO2 at 37° C. Drug efficacy was evaluated after culturing primary cortical neuron cells for 14 days.
The amount of GluN2B reacted with the compound of the present disclosure was measured using Western blot. The fetal cerebral cortex was extracted from mice at 17 days of gestation, dissociated into single cells, cultured for 13 days, and treated with BnH drugs for 24 hours. The drug-treated cells were subjected to protein lysate preparation using RIPA protein lysis buffer containing protease and phosphatase inhibitors. The protein concentration was determined using a BCA protein assay kit (Pierce Biotechnology) using bovine serum albumin as a standard. Equal amounts of protein (20 μg per lane) were separated by electrophoresis on SDS-polyacrylamide gels at 90 V for 2 hours, then transferred from the SDS-polyacrylamide gel to PVDF membrane at 100 V for 1 hour. Then, primary reaction with GluN2B antibody (ab65783, Abcam) was performed at 4° C. for 1 day, washed three times at 10-minutes intervals with 1×PBT, and secondary reaction was performed with anti-mouse antibody (sc-2357, Santa Cruz) for 1 hour, followed by washing three times at 10-minutes intervals with 1×PBT. Western blotting was performed as described above to confirm GluN2B protein expression. Subsequently, each blot was re-probed using anti-β-actin antibody (sc-47778, Santa Cruz). Housekeeping protein B-actin was detected as a normalization control.
The increase and decrease of BnH12 series were confirmed by setting the vehicle to 1 (N for each group was 3 or more).
Using the experimental procedure described in Example 3, it was determined whether various BnH12 series compounds increase GluN2B expression, and the results are shown in Table 5. These in vitro experimental results are expressed as relative values to the group (vehicle) that was not treated with the compound, with the effect of the group set to 1.

6-Ethyl-1-(2-(4-(pyrimidin-5-yl)phenyl) acetyl) piperidine-3-carboxylic acid [BnH12097]
Cell viability test results (CCK) 10 uM [1]: 90%< | Cell viability test results (CCK) 100 uM [1]: 85%< | GluN2B expression effect (in words) ([2]; compared to vehicle / other compounds, Table 5): excellent effects | Western blot results Mean (GluN2B expression) [2]: 2.625

C[C@H]1CC[C@@H](C(=O)O)CN1C(=O)Cc1ccc(-c2ccc(F)cc2)cc1 [BnH12002, (3R,6S)-1-(2-(4′-fluoro-8 1,l′-biphenyl9-4-yl)acetyl)-6-methylpiperidine-3-carboxylic acid]
Cell viability test results (CCK) 10 uM [1]: 90%< | Cell viability test results (CCK) 100 uM [1]: 95%<

O=C(NO)[C@H]1CCCN1C(=O)Cc1ccc(-c2cncnc2)cc1 [BnH12015, (R)-N-hydroxy-1-(2-(4-(pyrimidin-5-yl)phenyl)acetyl) pyrrolidine-2-carboxamide]
Cell viability test results (CCK) 10 uM [1]: 99%< | Cell viability test results (CCK) 100 uM [1]: 99%<

O=C(NO)[C@@H]1CCCN1C(=O)Cc1ccc(-c2cncnc2)cc1 [BnH12017, (S)-N-hydroxy-1-(2-(4-(pyrimidin-5-yl)phenyl)acetyl)pyrrolidine-2-carboxamide]
Cell viability test results (CCK) 10 uM [1]: 95%< | Cell viability test results (CCK) 100 uM [1]: 80%< | Western blot results Mean (GluN2B expression) [2]: 1.448

C[C@H]1CC[C@@H](C(=O)O)CN1C(=O)Cc1ccc2nccnc2c1 [BnH12036, (3R,6S)-6-methyl-1-(2-(quinoxalin-6-yl)acetyl) piperidine-3-carboxylic acid]
Cell viability test results (CCK) 10 uM [1]: 95%< | Cell viability test results (CCK) 100 uM [1]: 95%<

C[C@H]1CC[C@@H](C(=O)O)CN1C(=O)Cc1ccc2c(c1)OCCO2 [BnH12037]
Cell viability test results (CCK) 10 uM [1]: 99%< | Cell viability test results (CCK) 100 uM [1]: 99%<

C[C@H]1CC[C@@H](C(=O)O)CN1C(=O)Cc1ccc(-c2ccccc2)cc1 [BnH12042]
Cell viability test results (CCK) 10 uM [1]: 95%< | Cell viability test results (CCK) 100 uM [1]: 90%<

C[C@H]1CC[C@@H](C(=O)O)CN1C(=O)Cc1ccc(-c2ccncc2)cc1 [BnH12043, (3R,6S)-6-methyl-1-(2-(4-(pyridin-4-yl)phenyl)acetyl) piperidine-3-carboxylic acid]
Cell viability test results (CCK) 10 uM [1]: 99%< | Cell viability test results (CCK) 100 uM [1]: 99%<

C[C@H]1CC[C@@H](C(=O)O)CN1C(=O)Cc1ccc(-c2ccccn2)cc1 [BnH12044, (3R,6S)-6-methyl-1-(2-(4-(pyridin-2-yl)phenyl)acetyl) piperidine-3-carboxylic acid]
Cell viability test results (CCK) 10 uM [1]: 80%< | Cell viability test results (CCK) 100 uM [1]: 75%<

C[C@H]1CC[C@@H](C(=O)O)CN1C(=O)Cc1ccc(-c2ccnnc2)cc1 [BnH12045, (3R,6S)-6-methyl-1-(2-(4-(pyridazin-4-yl)phenyl)acetyl) piperidine-3-carboxylic acid]
Cell viability test results (CCK) 10 uM [1]: 99%< | Cell viability test results (CCK) 100 uM [1]: 99%< | Western blot results Mean (GluN2B expression) [2]: 1.341

C[C@H]1CC[C@@H](C(=O)O)CN1C(=O)Cc1ccc(-c2ncc(F)cn2)cc1 [BnH12049, (3R,6S)-1-(2-(4-(5-fluoropyrimidin-2-yl)phenyl)acetyl)-6-methylpiperidine-3-carboxylic acid]
Cell viability test results (CCK) 10 uM [1]: 90%< | Cell viability test results (CCK) 100 uM [1]: 85%<

C[C@H]1CC[C@@H](C(=O)O)CN1C(=O)Cc1ccc(-c2cnc(C3CC3)nc2)cc1 [BnH12052, (3R,6S)-1-(2-(4-(2-cyclopropylpyrimidin-5-yl)phenyl)acetyl)-6-methylpiperidine-3-carboxylic acid]
Cell viability test results (CCK) 10 uM [1]: 80%< | Cell viability test results (CCK) 100 uM [1]: 75%<

C[C@H]1CC[C@@H](C(=O)O)CN1C(=O)Cc1ccc(-c2ccncn2)cc1 [BnH12054, (3R,6S)-6-methyl-1-(2-(4-(pyrimidin-4-yl)phenyl)acetyl) piperidine-3-carboxylic acid]
Cell viability test results (CCK) 10 uM [1]: 99%< | Cell viability test results (CCK) 100 uM [1]: 99%<

C[C@H]1CC[C@@H](C(=O)O)CN1C(=O)Cc1ccc(-c2cccs2)cc1 [BnH12055, (3R,6S)-6-methyl-1-(2-(4-(thiophen-2-yl)phenyl)acetyl) piperidine-3-carboxylic acid]
Cell viability test results (CCK) 10 uM [1]: 90%< | Cell viability test results (CCK) 100 uM [1]: 60%<

C[C@H]1CC[C@@H](C(=O)O)CN1C(=O)Cc1ccc(-c2ccco2)cc1 [BnH12056, (3R,6S)-1-(2-(4-(furan-2-yl)phenyl)acetyl)-6-methylpiperidine-3-carboxylic acid]
Cell viability test results (CCK) 10 uM [1]: 95%< | Cell viability test results (CCK) 100 uM [1]: 90%<

C[C@H]1CC[C@@H](C(N)=O)CN1C(=O)Cc1ccc(-c2ncc(F)cn2)cc1 [BnH12059, (3R,6S)-1-(2-(4-(5-fluoropyrimidin-2-yl)phenyl)acetyl)-6-methylpiperidine-3-carboxamide]
Cell viability test results (CCK) 10 uM [1]: 90%< | Cell viability test results (CCK) 100 uM [1]: 70%<

C[C@H]1CC[C@@H](C(=O)O)CN1C(=O)Cc1ccc(-c2ccc([N+](=O)[O-])cc2)cc1 [BnH12077, (3R,6S)-6-methyl-1-(2-(4'-nitro-[1,1'-biphenyl]-4-yl)acetyl)piperidine-3-carboxylic acid]
Cell viability test results (CCK) 10 uM [1]: 99%< | Cell viability test results (CCK) 100 uM [1]: 60%<

C[C@H]1CC[C@@H](C(=O)O)CN1C(=O)c1ccc(-c2cccnc2)cc1 [BnH12080, (3R,6S)-6-methyl-1-(4-(pyridin-3-yl)benzoyl) piperidine-3-carboxylic acid]
Cell viability test results (CCK) 10 uM [1]: 85%< | Cell viability test results (CCK) 100 uM [1]: 85%<

COc1ccc(-c2ccc(CC(=O)N3C[C@H](C(=O)O)CC[C@@H]3C)cc2)cn1 [BnH12081, (3R,6S)-1-(2-(4-(6-methoxypyridin-3-yl)phenyl)acetyl)-6-methylpiperidine-3-carboxylic acid]
Cell viability test results (CCK) 10 uM [1]: 85%< | Cell viability test results (CCK) 100 uM [1]: 70%<

C[C@H]1CC[C@@H](C(=O)O)CN1C(=O)Cc1ccc(-c2ccc(C3CC3)nc2)cc1 [BnH12082, (3R,6S)-1-(2-(4-(6-cyclopropylpyridin-3-yl)phenyl)acetyl)-6-methylpiperidine-3-carboxylic acid]
Cell viability test results (CCK) 10 uM [1]: 90%< | Cell viability test results (CCK) 100 uM [1]: 90%<

C[C@H]1CC[C@@H](C(=O)O)CN1C(=O)Cc1ccc(-c2ccc(C(F)(F)F)nc2)cc1 [BnH12083, (3R,6S)-6-methyl-1-(2-(4-(6-(trifluoromethyl)pyridin-3-yl)phenyl)acetyl) piperidine-3-carboxylic acid]
Cell viability test results (CCK) 10 uM [1]: 95%< | Cell viability test results (CCK) 100 uM [1]: 75%<

Cc1ccc(-c2ccc(CC(=O)N3C[C@H](C(=O)O)CC[C@@H]3C)cc2)cn1 [BnH12084, (3R,6S)-6-methyl-1-(2-(4-(6-methylpyridin-3-yl)phenyl)acetyl) piperidine-3-carboxylic acid]
Cell viability test results (CCK) 10 uM [1]: 80%< | Cell viability test results (CCK) 100 uM [1]: 70%<

C[C@H]1CC[C@@H](C(=O)O)CN1C(=O)Cc1ccc(-c2ccc(-c3ccccc3)nc2)cc1 [BnH12087, (3R,6S)-6-methyl-1-(2-(4-(6-phenylpyridin-3-yl)phenyl)acetyl) piperidine-3-carboxylic acid]
Cell viability test results (CCK) 10 uM [1]: 85%< | Cell viability test results (CCK) 100 uM [1]: 45%<
